Source: US20150158862A1, “1,3-DIHYDRO-2H-BENZIMIDAZOL-2-ONE DERIVATIVES SUBSTITUTED WITH HETEROCYCLES AS RESPIRATORY SYNCYTIAL VIRUS ANTIVIRAL AGENTS” (Janssen R&D Ireland, priority 2012, published 2015)

Experiments:
rgRSV224 virus = test: Antiviral activity: inhibition of GFP expression of rgRSV224 virus in HeLa cells; type: cell-based, respiratory syncytial virus (RSV); conditions: human respiratory syncytial virus, 72 h, read-out: WT activity EC50
Procedure: (§1) Black 96-well clear-bottom microtiter plates (Corning, Amsterdam, The Netherlands) were filled in duplicate using a customized robot system with serial 4-fold dilutions of compound in a final volume of 50 μl culture medium [RPMI medium without phenol red, 10% FBS, 0.04% gentamycin (50 mg/ml) and 0.5% DMSO]. Then, 100 μl of a HeLa cell suspension (5×10^4 cells/ml) in culture medium was added to each well followed by the addition of 50 μl rgRSV224 (MOI=0.02) virus in culture medium using a multidrop dispenser (Thermo Scientific, Erembodegem, Belgium). rgRSV224 virus is an engineered virus that includes an additional GFP gene (Hallak et al, 2000) and was in-licensed from the NIH (Bethesda, Md., USA). Medium, virus- and mock-infected controls were included in each test. Cells were incubated at 37° C. in a 5% CO2 atmosphere. Three days post-virus exposure, viral replication was quantified by measuring GFP expression in the cells by a MSM laser microscope (Tibotec, Beerse, Belgium). The EC50 was defined as the 50% inhibitory concentration for GFP expression. In parallel, compounds were incubated for three days in a set of white 96-well microtitier plates (Corning) and the cytotoxicity of compounds in HeLa cells was determined by measuring the ATP content of the cells using the ATPlite kit (PerkinElmer, Zaventem, Belgium) according to the manufacturer's instructions. The CC50 was defined as the 50% concentration for cytotoxicity.

in vitro = type: cell-based; conditions: human
Procedure: as §1

| SMILES | EC50 (rgRSV224 virus) | CC50 at 3 days (in vitro) |
| --- | --- | --- |
| CS(=O)(=O)CCCn1c(Cn2c(=O)n(CC(F)(F)F)c3c(Cl)cncc32)cc2cc(Cl)ccc21 [Compound P5, 7-chloro-3-((5-chloro-1-(3-(methylsulfonyl)propyl)-1H-indol-2-yl)-methyl)-1-(2,2,2-trifluoroethyl)-1H-imidazo[4,5-c]pyridin-2(3H)-one] | 25.1 nM | 31600 nM |
| CC(C)CCn1c(Cn2c(=O)n(C3CC3)c3c(Cl)cccc32)nc2nc(Cl)ccc21 [Compound P9, 4-chloro-1-((5-chloro-1-isopentyl-1H-imidazo[4,5-b]pyridin-2-yl)-methyl)-3-cyclopropyl-1H-benzo[d]imidazol-2(3H)-one] | 794 nM | > 25000 nM |
| Cc1cccc2c1n(C1CC1)c(=O)n2Cc1nc2nc(Cl)ccc2n1CCC(C)C [Compound P10, 1-((5-chloro-1-isopentyl-1H-imidazo[4,5-b]pyridin-2-yl)methyl)-3-cyclopropyl-4-methyl-1H-benzo[d]imidazol-2(3H)-one] | 398 nM | > 50000 nM |
| CS(=O)(=O)CCCn1c(Cn2c(=O)n(C3CC3)c3c(Cl)cncc32)cc2cc(Cl)ccc21 [Compound P3] | 19.9 nM | > 100000 nM |
| Cc1cncc2c1n(C1CC1)c(=O)n2Cc1cc2cc(Cl)ccc2n1CCCS(C)(=O)=O [Compound P4] | 19.9 nM | > 100000 nM |
| CS(=O)(=O)CCCn1c(Cn2c(=O)n(CC(F)(F)F)c3c(Cl)cccc32)cc2cc(Cl)ccc21 [Compound P1, 4-chloro-1-((5-chloro-1-(3-(methylsulfonyl)-propyl)-1H-indol-2-yl)methyl)-3-(2,2,2-trifluoroethyl)-1H-benzo[d]imidazo-2(3H)-one] | 398 nM | > 100000 nM |
| O=c1n(Cc2cc3cc(Cl)ccc3n2CCCC(F)(F)F)c2cncc(Cl)c2n1CC(F)(F)F [Compound P2] | 100 nM | > 100000 nM |
| Cc1cccc2c1n(C1CC1)c(=O)n2Cc1cc2nc(Cl)ccc2n1CCCC(F)(F)F [Compound P11, 1-((5-chloro-1-(4,4,4-trifluorobutyl)-1H-pyrrolo[3,2-b]pyridin-2-yl)-methyl)-3-cyclopropyl-4-methyl-1H-benzo[d]imidazol-2(3H)-one] | 6310 nM | 12600 nM |
| Cc1cncc2c1n(CC(F)(F)F)c(=O)n2Cc1cc2cc(Cl)ccc2n1CCCS(C)(=O)=O [Compound P8, 3-((5-chloro-1-(3-(methylsulfonyl)propyl)-1H-indol-2-yl)methyl)-7-methyl-1-(2,2,2-trifluoroethyl)-1H-imidazo[4,5-c]pyridin-2(3H)-one] | 100 nM | 50100 nM |
| O=c1n(Cc2cc3cc(Cl)ccc3n2CCCC(F)(F)F)c2cccc(Cl)c2n1CC(F)(F)F [Compound P7, 4-chloro-1-((5-chloro-1-(4,4,4-trifluorobutyl)-1H-indol-2yl)methyl)-3-(2,2,2-trifluoroethyl)-1H-benzo [d]imidazol-2(3H)-one] | – | > 100000 nM |
| CS(=O)(=O)CCCn1c(Cn2c(=O)n(C3CC3)c3c(Cl)cccc32)cc2cc(Cl)ccc21 [Compound P6] | 631 nM | 31600 nM |
